Patent publication US20170044100A1, “INHIBITORS OF DRUG-RESISTANT MYCOBACTERIUM TUBERCULOSIS” (THE JOHNS HOPKINS UNIVERSITY, priority 2014, published 2017)
≈ marks a conversion by molar mass, not a printed value. Like-named read-outs stand apart in the source and are kept apart here.

Experiments:
[1] = system: M. tuberculosis strain H37Rv; test: microbe, parasite or virus in culture; assay type: cell-based, Mycobacterium tuberculosis; set-up: MICMABA: unit not given here; conditions: for MICMABA: H37Rv, MABA, Table 9; for MIC: Mycobacterium tuberculosis
M. tuberculosis H37Rv [2] = test: microbe, parasite or virus in culture; assay type: cell-based, Mycobacterium tuberculosis; set-up: MICBD / MBCBD: unit not given here; conditions: for MBCBD / MICBD: H37Rv, broth dilution, Table 9; for MBC: Mycobacterium tuberculosis, H37RV, read-out: minimum bactericidal concentration (MBC)
[3] = system: V4207 (drug susceptible strain of M. tuberculosis); test: microbe, parasite or virus in culture; assay type: cell-based; conditions: Mycobacterium tuberculosis, MABA, read-out: MIC V4207 (DS)
[4] = Cytotoxicity assay on Vero cells (alamar blue); conditions: African green monkey, Vero cells (ATCC CCL-81)
Vero cells = test: Cytotoxicity assay on Vero cells (alamar blue); conditions: for IC50: Chlorocebus sabaeus, Vero
M. tuberculosis H37Rv [5] = assay type: cell-based, Mycobacterium tuberculosis; conditions: 4× MIC
M. tuberculosis H37Rv [6] = assay type: in vivo, BALB/c mice
[7] = set-up: species or system BALB/c mice; conditions: mouse, in vivo
Protocol: Female BALB/c mice (20 g each, Charles River Laboratories) were given a single dose of compound 12 at 100 mg/kg by oral gavage in a volume of 0.2 mL. […] Mouse lungs were removed, weighed and stored at −80° C. Plasma was separated by centrifugation at 12,000 x g for 20 min at 4° C. and stored at −80° C. Mouse lungs were homogenized by bead-beating in 0.5 mL of liquid chromatography/mass spectrometry (LC/MS) water and supernatants were recovered by centrifugation at 4° C. for 20 min. Concentrations of compound 12 in plasma and lung homogenate supernatants were analyzed with LC-tandem MS (LC-MS/MS, AB SCIEX QTRAP 5500 system) with compound 2 as internal standard. MS detection of mass transitions 299.01/146.1 and 299.01/131.1 was carried out. Concentration calculation was done with MultiQuant Software (Version 2.1, AB SCIEX). The pharmacokinetic profile of the test compound was analyzed from plasma and lung concentration-time data after oral administration.
A single 100 mg/kg dose of compound 12 was administered to 24 mice (3 per time point). Plasma and lung concentration of compound 12 was determined by liquid chromatography-tandem mass spectrometry.

in vitro = conditions: African green monkey, IC50 (cytotoxicity against Vero cells), Table 1
M. tuberculosis H37Rv [8] = conditions: 100 mg/kg oral gavage
[9] = control strains H37Rv and V4207, read-out: MIC
[10] = parental H37Rv strain, read-out: MIC for H37Rv
[11] = read-out: IC50 Vero Cells, Vero cells, Table 9

Compound | MICMABA [1] | MIC ([1]; H37RV) | MIC [1, 9] | MIC [1, 10] | MBCBD (M. tuberculosis H37Rv [2]) | MICBD (M. tuberculosis H37Rv [2]) | MBC (M. tuberculosis H37Rv [2]) | MIC [3] | IC50 at 72 h [4] | IC50 (Vero cells; read-out: IC50 Vero Cells) | Selectivity Index (Vero cells; Vero IC50 versus MIC, Table 9) | selectivity index (Vero cells; toxicity versus MIC) | time to kill at least 4 log10 CFUs (M. tuberculosis H37Rv [5]) | IC50 (Vero cells; [11]) | IC50 (in vitro) | other results
Cc1cc(C)c2cc(C(=O)NC3CCCCCC3)[nH]c2c1 [Compound 11, N-Cycloheptyl-4,6-dimethyl-1H-indole-2-carboxamide] | 0.0156 | 0.055 µM | 0.0156 to 0.0313 µg/mL | 0.0156 to 0.0313 µg/mL | 0.0312 | 0.0156 | 0.0313 µg/mL (≈ 0.11 µM) | 0.11 µM (≈ 0.0313 µg/mL) | > 200 µM | > 64 µg/mL | >2048 | > 2048 | ≤ 3 days | – | – | IC50 (Vero cells; read-out: IC50 for Vero cell viability): > 64 µg/mL
Cc1cc(C)c2cc(C(=O)NC3CCCCCCC3)[nH]c2c1 [Compound 12, N-Cyclooctyl-4,6-dimethyl-1H-indole-2-carboxamide] | 0.0039 | 0.013 µM | 0.0039 µg/mL | 0.0039 µg/mL | – | – | 0.0078 µg/mL (≈ 0.0261 µM) | 0.026 µM (≈ 0.00776 µg/mL) | 54 µM | 16 µg/mL (≈ 53.6 µM) | 4000 | 4000 | ≤ 5 days | – | – | MIC for H37Rv ([1]; parental H37Rv strain): 0.0039 µg/mL; Mean lung CFU counts (standard deviation), Day 7 (M. tuberculosis H37Rv [6]; 33.3 mg/kg oral gavage daily (5 days per week)): 7.184 (0.244); Mean lung CFU counts (standard deviation), Day 14 (M. tuberculosis H37Rv [6]; 33.3 mg/kg oral gavage daily): 7.001 (0.206); Mean lung CFU counts (standard deviation), Day 28 (M. tuberculosis H37Rv [6]; 33.3 mg/kg oral gavage daily): 6.919 (0.112); Mean lung CFU counts (standard deviation), Day 7 (M. tuberculosis H37Rv [6]; 100 mg/kg oral gavage daily): 6.902 (0.243); Mean lung CFU counts (standard deviation), Day 14 (M. tuberculosis H37Rv [6]; 100 mg/kg oral gavage daily): 7.122 (0.148); Mean lung CFU counts (standard deviation), Day 28 (M. tuberculosis H37Rv [6]; 100 mg/kg oral gavage daily): 6.803 (0.068); Mean lung CFU counts (standard deviation), Day 7 (M. tuberculosis H37Rv [6]; 300 mg/kg oral gavage daily): 6.768 (0.329); Mean lung CFU counts (standard deviation), Day 14 (M. tuberculosis H37Rv [6]; 300 mg/kg oral gavage daily): 6.981 (0.305); Mean lung CFU counts (standard deviation), Day 28 (M. tuberculosis H37Rv [6]; 300 mg/kg oral gavage daily): 6.746 (0.157); lung CFU counts compared to untreated mice (M. tuberculosis H37Rv [6]; after four weeks of treatment, 33, 100 and 300 mg/kg daily oral gavage): significantly lower; oral bioavailability in mice [7]: orally bioavailable; AUC0-24, lung ([7]; po, 100 mg/kg): 31.40 mg·h/kg
Cc1cc(C)c2cc(C(=O)NC3CCCCC3)[nH]c2c1 [Compound 3, N-Cyclohexyl-4,6-dimethyl-1H-indole-2-carboxamide] | 0.125 | 0.93 µM | 0.125 to 0.25 µg/mL | 0.125 to 0.25 µg/mL | 0.25 | 0.25 | 0.25 µg/mL (≈ 0.925 µM) | 0.93 µM (≈ 0.251 µg/mL) | – | – | – | – | – | > 64 µg/mL | > 200 µM | Selectivity Index (Vero cells): >256; selectivity index (Vero cells): > 256; IC50 for Vero cell viability (Vero cells; Vero cell line): 16 µg/mL
N-(2,3,5 -methyl, 4-dimethyl)-4,6-difluoro-1H-indole-2-carboxamide | 0.0039 | – | – | – | – | – | – | – | – | – | – | – | – | – | – | activity in comparison to the 4,6-dimethyl analog (1h) ([1]; H37Rv MIC relative to 1h): as active as 1h; bioavailability in vivo by serum inhibition titration (M. tuberculosis H37Rv [8]; Balb/c mice): bioavailable in vivo; serum inhibition activity compared with isoniazid (M. tuberculosis H37Rv [8]; isoniazid positive control): comparable to that of isoniazid
Cc1cc(C)c2cc(C(=O)Nc3ccccc3)[nH]c2c1 [Compound 4, N-Phenyl-4,6-dimethyl-1H-indole-2-carboxamide] | 1 | 3.8 µM | – | – | 8 | 1 | – | – | – | – | – | – | – | > 64 µg/mL | > 200 µM | –
